Structures can show the parent of a compound that is named as a salt.
Assays:
[1] = target: T1, human recombinant 5-HT2C receptor (Homo sapiens, UniProt P28335); test: Affinity for 5HT2 receptor binding sites, h5-HT2C, [3H]mesulergine; conditions: CHO h5-HT2C membranes
T1 sequence (P28335 33-458): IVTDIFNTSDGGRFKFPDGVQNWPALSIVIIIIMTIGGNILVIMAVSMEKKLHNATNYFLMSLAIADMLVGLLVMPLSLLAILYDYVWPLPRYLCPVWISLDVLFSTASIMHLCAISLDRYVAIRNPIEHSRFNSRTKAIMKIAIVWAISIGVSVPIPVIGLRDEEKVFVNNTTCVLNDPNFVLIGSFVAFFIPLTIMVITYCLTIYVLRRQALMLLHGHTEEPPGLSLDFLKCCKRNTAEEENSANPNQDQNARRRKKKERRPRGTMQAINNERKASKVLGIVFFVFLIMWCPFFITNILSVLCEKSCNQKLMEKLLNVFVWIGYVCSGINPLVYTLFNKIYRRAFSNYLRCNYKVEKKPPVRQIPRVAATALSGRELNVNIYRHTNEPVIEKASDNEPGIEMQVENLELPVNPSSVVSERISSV
Experimental: (§1) Sigmoidal inhibition curves were generated and fitted by nonlinear regression analysis (GraphPad Prism).
Receptor binding was performed using the human recombinant 5-HT2A (GB: X57830), 5-HT2B (GB: Z36748) and 5-HT2C (GB: M81778) receptors. The affinity of the compounds for the 3 different human 5-HT2 receptor subtypes was evaluated by competitive radioligand binding assays using [^3H]ketanserin (h5-HT2A) or [^3H]mesulergine (h5-HT2B and h5-HT2C). The assays were performed on membranes prepared from NIH3T3 stably transfected with h5-HT2A or CHO stably transfected with h5-HT2B and h5-HT2C.

[2] = target: rat 5-HT7a receptor (Rattus norvegicus, UniProt P32305); test: Affinity for 5-HT7 receptor binding sites, radioligand binding with [3H]5-CT; conditions: membranes of HEK-293 cells with rat 5-HT7a, 1 nM [3H]5-CT
Experimental: The affinity of the compounds described in this invention for the 5-HT7 receptor binding site was evaluated by single competition radioligand binding assay. The assay was performed on membranes prepared from HEK-293 cells that had been subjected to stable transfection with the rat 5-HT7a receptor (GB: NM022938). Cells were scraped from the culture plates, suspended in Tris-HCl 50 mM pH 7.5 and collected through centrifugation (1000 rpm for 5 min). The cell pellets were homogenized (Polytron, 15 s, setting 5) in 50 mM Tris-HCl (pH 7.5), 5 mM EDTA. Following centrifugation (15,000 rpm for 25 min), membranes (135 μg protein/mL) were resuspended in the same buffer and incubated for 60 min at RT with 1 nM [^3H]5-CT in the presence of increasing concentration of test compounds. Nonspecific binding was defined in the presence of 10 μM 5-HT. Incubation was stopped by rapid filtration using the cell harvester (Packard). Radioactivity was counted in a TopCount-NXT (Packard). Experiments were conducted in triplicate.

[3] = target: 5-HT2A receptor (Homo sapiens, UniProt P28223); test: Affinity for 5-HT2A receptor binding sites, radioligand binding with [3H]ketanserin; conditions: read-out: Ki 5-HT2A, rat cortex membranes (assay 2) or NIH3T3 h5-HT2A membranes (assay 3), table does not say which
Experimental: as §1
The affinity of the compounds for the rat 5-HT2A receptor was evaluated by competitive radioligand binding assay using [^3H]ketanserine as the radioligand. […] Brain tissue (rat cortex) was homogenized in 20 volumes per wet weight tissue of Tris-HCl buffer (50 mM, pH 7.4). The total membrane fraction was collected by centrifugation and washed by subsequent centrifugation runs (25 min at 25,000 g at 4° C.). Membranes were re-suspended in Tris-HCl buffer (50 mM, pH 7.4) containing 1 nM [^3H]ketanserin. Non-specific binding was estimated in the presence of 10 μM risperidone. The incubation was terminated by rapid filtration over Whatman GF/B filters pre-soaked in 0.1% polyethylenimine, and one washing step with 1 mL ice-cold Tris-HCl buffer, pH 7.4.

[4] = target: 5-HT2B receptor (Homo sapiens, UniProt P41595); test: Affinity for 5HT2 receptor binding sites, h5-HT2B, [3H]mesulergine; conditions: CHO h5-HT2B membranes
Chain of 5-HT2B receptor (P41595 whole entry): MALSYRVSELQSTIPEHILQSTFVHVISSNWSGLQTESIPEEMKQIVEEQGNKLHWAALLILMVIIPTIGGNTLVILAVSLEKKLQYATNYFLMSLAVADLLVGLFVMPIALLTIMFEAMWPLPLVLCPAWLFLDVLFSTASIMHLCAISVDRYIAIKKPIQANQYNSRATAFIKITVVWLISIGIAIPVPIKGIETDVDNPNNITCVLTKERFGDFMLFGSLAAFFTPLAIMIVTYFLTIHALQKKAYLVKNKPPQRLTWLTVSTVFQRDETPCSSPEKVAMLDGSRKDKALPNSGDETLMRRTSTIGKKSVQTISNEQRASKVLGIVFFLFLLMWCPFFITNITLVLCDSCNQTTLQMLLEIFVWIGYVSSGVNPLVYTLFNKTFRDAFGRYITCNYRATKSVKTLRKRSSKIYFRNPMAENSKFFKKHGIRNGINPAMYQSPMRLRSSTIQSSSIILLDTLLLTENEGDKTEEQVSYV

Chain of rat 5-HT7a receptor (P32305 whole entry): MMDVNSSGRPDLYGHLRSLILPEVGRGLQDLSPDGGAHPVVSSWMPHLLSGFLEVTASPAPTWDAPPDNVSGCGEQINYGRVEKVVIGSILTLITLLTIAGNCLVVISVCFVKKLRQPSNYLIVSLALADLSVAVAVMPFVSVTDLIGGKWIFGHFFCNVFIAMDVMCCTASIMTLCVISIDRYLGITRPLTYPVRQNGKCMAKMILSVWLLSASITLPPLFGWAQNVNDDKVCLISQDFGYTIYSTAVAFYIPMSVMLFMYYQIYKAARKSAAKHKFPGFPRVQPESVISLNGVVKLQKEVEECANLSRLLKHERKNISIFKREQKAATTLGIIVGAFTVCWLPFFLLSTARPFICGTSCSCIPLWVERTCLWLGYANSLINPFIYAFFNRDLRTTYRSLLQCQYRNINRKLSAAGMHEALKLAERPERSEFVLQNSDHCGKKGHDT

| SMILES | Ki [1] [µM] | Ki [2] [µM] | Ki [3] [µM] | Ki [4] [µM] |
| --- | --- | --- | --- | --- |
| CC(C)c1nc2c(c(-c3ccccc3)n1)CNCC2 [Example 31, 2-Isopropyl-4-phenyl-5,6,7,8-tetrahydro-pyrido[4,3-d]pyrimidine] | > 10 | > 10 | 0.07 | 2 |
| CC(C)c1nc2c(c(-c3ccc(C(F)(F)F)cc3)n1)CNCC2 [Example 32, 2-Isopropyl-4-(4-trifluoromethyl-phenyl)-5,6,7,8-tetrahydro-pyrido[4,3-d]pyrimidine] | > 10 | > 10 | 2 | > 10 |
| CC(C)c1nc2c(c(-c3ccccc3Oc3ccccc3)n1)CNCC2 [Example 33, 2-Isopropyl-4-(2-phenoxy-phenyl)-5,6,7,8-tetrahydro-pyrido[4,3-d]pyrimidine] | > 10 | > 10 | > 10 | > 10 |
| CC(C)Cc1nc2c(c(-c3ccsc3)n1)CNCC2 [Example 34, 2-Isobutyl-4-thiophen-3-yl-5,6,7,8-tetrahydro-pyrido[4,3-d]pyrimidine] | 1 | > 10 | 0.15 | 0.4 |
| CC(C)Cc1nc2c(c(-c3cccs3)n1)CNCC2 [Example 35, 2-Isobutyl-4-thiophen-2-yl-5,6,7,8-tetrahydro-pyrido[4,3-d]pyrimidine] | 2 | 0.5 | 0.07 | 0.4 |
| CC(C)Cc1nc2c(c(-c3ccncc3)n1)CNCC2 [Example 36, 2-Isobutyl-4-pyridin-4-yl-5,6,7,8-tetrahydro-pyrido[4,3-d]pyrimidine] | > 10 | > 10 | > 10 | > 10 |
| Cc1ccc(-c2nc(CC(C)C)nc3c2CNCC3)cc1 [Example 38, 2-Isobutyl-4-p-tolyl-5,6,7,8-tetrahydro-pyrido[4,3-d]pyrimidine] | 0.8 | > 10 | 0.04 | 0.05 |
| Cc1cc(-c2nc(CC(C)C)nc3c2CNCC3)ccc1F [Example 39, 4-(4-Fluoro-3-methyl-phenyl)-2-isobutyl-5,6,7,8-tetrahydro-pyrido[4,3-d]pyrimidine] | > 10 | > 10 | 0.15 | > 10 |
| CC(C)Cc1nc2c(c(-c3ccc(C#N)cc3)n1)CNCC2 [Example 40, 4-(2-Isobutyl-5,6,7,8-tetrahydro-pyrido[4,3-d]pyrimidin-4-yl)-benzonitrile] | > 10 | > 10 | 0.5 | > 10 |
| COc1ccc(-c2nc(CC(C)C)nc3c2CNCC3)cc1 [Example 41, 2-Isobutyl-4-(4-methoxy-phenyl)-5,6,7,8-tetrahydro-pyrido[4,3-d]pyrimidine] | 5 | > 10 | 2 | 5 |
| CCC(C)c1nc2c(c(-c3ccccc3F)n1)CNCC2 (centres unmarked) [Example 42, 2-sec-Butyl-4-(2-fluoro-phenyl)-5,6,7,8-tetrahydro-pyrido[4,3-d]pyrimidine hydrochloride] | > 10 | > 10 | 0.12 | > 10 |
| CCC(C)c1nc2c(c(-c3cccc(F)c3)n1)CNCC2 (centres unmarked) [Example 43, 2-sec-Butyl-4-(3-fluoro-phenyl)-5,6,7,8-tetrahydro-pyrido[4,3-d]pyrimidine] | > 10 | > 10 | 0.2 | > 10 |
| CCC(C)c1nc2c(c(-c3ccc(OC)cc3)n1)CNCC2 (centres unmarked) [Example 44, 2-sec-Butyl-4-(4-methoxy-phenyl)-5,6,7,8-tetrahydro-pyrido[4,3-d]pyrimidine] | 1 | > 10 | 0.4 | 0.5 |
| CCC(C)c1nc2c(c(-c3ccc(OC(F)(F)F)cc3)n1)CNCC2 (centres unmarked) [Example 45, 2-sec-Butyl-4-(4-trifluoromethoxy-phenyl)-5,6,7,8-tetrahydro-pyrido[4,3-d]pyrimidine] | > 10 | > 10 | > 10 | > 10 |
| Cc1nc2c(c(-c3ccc(Cl)cc3)n1)CCNCC2 [Example 51, 4-(4-Chloro-phenyl)-2-methyl-6,7,8,9-tetrahydro-5H-pyrimido[4,5-d]azepine] | 9 | > 10 | 0.47 | 0.14 |
| Cc1nc2c(c(-c3ccccc3)n1)CCNCC2 [Example 52, 2-Methyl-4-phenyl-6,7,8,9-tetrahydro-5H-pyrimido[4,5-d]azepine] | 9 | > 10 | 0.725 | 1.15 |
| Cc1nc2c(c(-c3cccc(Cl)c3)n1)CCNCC2 [Example 53, 4-(3-Chloro-phenyl)-2-methyl-6,7,8,9-tetrahydro-5H-pyrimido[4,5-d]azepine] | > 10 | > 10 | 1 | > 10 |
| Cc1ccc(-c2nc(C(C)C)nc3c2CCCNC3)cc1 [Example 66, 2-Isopropyl-4-p-tolyl-6,7,8,9-tetrahydro-5H-pyrimido[4,5-c]azepine hydrochloride] | 0.145 | 0.3 | 0.008 | 0.03 |
| COc1ccc(-c2nc(C(C)C)nc3c2CCCNC3)cc1 [Example 67, 2-Isopropyl-4-(4-methoxy-phenyl)-6,7,8,9-tetrahydro-5H-pyrimido[4,5-c]azepine] | 0.495 | 5.4 | 0.056 | 0.08 |
| CC(C)c1nc2c(c(-c3ccccc3)n1)CCCNC2 [Example 68, 2-Isopropyl-4-phenyl-6,7,8,9-tetrahydro-5H-pyrimido[4,5-c]azepine] | 7.1 | > 10 | 0.08 | 0.66 |
| c1ccc(Cc2nc3c(c(-c4ccccc4)n2)CCN(Cc2ccccc2)C3)cc1 [Example 72, 2,7-Dibenzyl-4-phenyl-5,6,7,8-tetrahydro-pyrido[3,4-d]pyrimidine] | > 10 | > 10 | 0.13 | > 10 |
| COc1ccc(-c2nc(Cc3ccccc3)nc3c2CCN(Cc2ccccc2)C3)cc1 [Example 73, 2,7-Dibenzyl-4-(4-methoxy-phenyl)-5,6,7,8-tetrahydro-pyrido[3,4-d]pyrimidine] | > 10 | > 10 | 0.14 | > 10 |
| CC(C)c1nc2c(c(-c3ccc(F)cc3)n1)CCN(Cc1ccccc1)C2 [Example 74, 7-Benzyl-4-(4-fluoro-phenyl)-2-isopropyl-5,6,7,8-tetrahydro-pyrido[3,4-d]pyrimidine] | > 10 | > 10 | 0.047 | 1.9 |
| CC(C)c1nc2c(c(-c3ccccc3)n1)CCN(Cc1ccccc1)C2 [Example 75, 7-Benzyl-2-isopropyl-4-phenyl-5,6,7,8-tetrahydro-pyrido[3,4-d]pyrimidine] | > 10 | 5 | 0.07 | 3 |
| COc1ccc(-c2nc(Cc3ccccc3)nc3c2CCNC3)cc1 [Example 79, 2-Benzyl-4-(4-methoxy-phenyl)-5,6,7,8-tetrahydro-pyrido[3,4-d]pyrimidine] | 0.9 | 0.3 | 0.115 | 0.435 |
| CC(C)c1nc2c(c(-c3ccccc3)n1)CCNC2 [Example 81, 2-Isopropyl-4-phenyl-5,6,7,8-tetrahydro-pyrido[3,4-d]pyrimidine] | 6 | > 10 | 0.025 | 0.45 |

— patent US7598255B2 (Janssen Pharmaceutica NV, priority 2005, dated 2009)
